{
  "source": "patent US20240294453A1",
  "about": "“Deuterated agonists and methods of use” (priority 2018, published 2024)",
  "origin": "cited, not measured here",
  "system": "subjects with schizophrenia",
  "key": {"[1]": {"conditions": "5 mg or 50 mg orally once daily, 24 weeks"}},
  "data": [
    {"smiles": "O=C(N[C@@H]1C2CCN(CC2)[C@H]1Cc1cccnc1)c1cc2ccccc2o1", "note": "[TC-5619]", "values": [
      {"measurement": "scores of CSB, UPSA-B, PANSS, CGI-I, CGI-S, or SGI-Cog vs placebo, P (none favored TC-5619)", "setting": "[1]", "result": "> 0.05"},
      {"measurement": "tolerability", "setting": "[1]", "result": "generally well tolerated"},
      {"measurement": "SANS score vs placebo, 2-tailed P", "setting": "5 mg, week 24", "result": 0.159},
      {"measurement": "benefit in some outcome measures in tobacco users", "setting": "tobacco users, no concordance by dose, country, gender", "result": "Sporadic statistical benefit"},
      {"measurement": "Scale for the Assessment of Negative Symptoms (SANS) composite score, benefit vs placebo", "setting": "week 24, orally once daily, 5 mg or 50 mg, added to a new-generation antipsychotic", "result": "no statistical benefit"}
    ]}
  ]
}
